How the values were obtained:
Cor26 CRH mice = assay: REMS levels (EEG/EMG sleep recording) in CRH-overexpressing Cor26 CRH mice; details: 50 mg/kg/d via drinking water
Procedure: (§1) Experiments were conducted with two different mouse lines of excessive central CRH secretion and their respective control littermates (CL). Mice of the CRH-COE^CNS line are characterised by CRH-overexpression within the whole CNS, whereas mice of the Cor26 CRH line display a CRH-overexpression specific to CRH-ergic neurons of the CNS. Three different CRHR1 antagonists were tested. […] In all cases, animals were left to recover from EEG/EMG-electrode implantation for two weeks, after which two days of baseline recording were initiated. Treatment with CRH-R1 antagonist or respective vehicle control commenced thereafter for five consecutive days. Antagonists were applied through the drinking water at a daily dose of 50 mg/kg body weight. EEG and EMG recordings were manually scored as wake, non-REMS (NREMS), and REMS in four second epochs by an experienced evaluator.

[1] = test system: control littermates (CL) of Cor26 CRH mice; assay: REMS levels (EEG/EMG sleep recording) in control littermates of the Cor26 CRH line; details: 50 mg/kg/d via drinking water
Procedure: as §1

[2] = test system: mice overexpressing CRH in the forebrain; details: Kimura et al., Mol. Psychiatry 2010; cited from earlier work
CRH-COE^CNS mice = assay: REMS activity (EEG/EMG sleep recording) in CRH-overexpressing CRH-COE^CNS mice; details: 50 mg/kg/d via drinking water; for REMS activity: treatment days vs baseline, effect beginning with treatment day two
Procedure: as §1

[3] = test system: control littermates (CL) of CRH-COE^CNS mice; assay: REMS activity (EEG/EMG sleep recording) in control littermates of the CRH-COE^CNS line; details: 50 mg/kg/d via drinking water
Procedure: as §1

Row | Structure (SMILES) | REMS levels (Cor26 CRH mice; 50 mg/kg/day) | REMS levels (Cor26 CRH mice; listed as CP-316311, 50 mg/kg/day) | REMS levels, area under the curve (AUC) within the light period (Cor26 CRH mice; baseline vs treatment day three, P=0.006) | REMS levels [1] | REM enhancement [2] | REMS suppression relative to baseline REMS-levels of CL (CRH-COE^CNS mice) | treatment day of strongest suppression of REMS activity (CRH-COE^CNS mice) | REMS activity (CRH-COE^CNS mice; 50 mg/kg/day) | REMS activity (CRH-COE^CNS mice; listed as DMP696, 50 mg/kg/day) | REMS activity [3]
1 | CCC(CC)Oc1cc(C)nc(Oc2c(C)cc(C)cc2C)c1C [CP-316,311] | apparently seemed weak | suppressed | significant decrease | no significant effect | – | – | – | – | – | –
2 | COCC(COC)Nc1nc(C)nc2c(-c3ccc(Cl)cc3Cl)c(C)nn12 [DMP-696] | – | – | – | – | could reverse the REM enhancement | never exceeded baseline REMS-levels of CL | treatment day three | significant decrease in REMS activity | suppressed | only a mild suppression of REMS

Reference: US10190168B2, “Method for predicting a treatment response to a CRHR1 antagonist and/or a V1B antagonist in a patient with depressive and/or anxiety symptoms” (MAX-PLANCK-GESELLSCHAFT ZUR FÖRDERUNG DER WISSENSCHAFTEN …, priority 2013, dated 2019)
